What was measured:
Format in all cases: in vivo
[1] = system: GPA (Myzus persicae); assay: Bioassays on Green Peach Aphid (GPA), foliar spray on cabbage seedlings; conditions: 72 h, corrected % control (Abbott), 200 ppm spray on cabbage seedlings, three days, read-out: GPA Rating
Method: Bioassays on Green Peach Aphid (“GPA”) (Myzus persicae) Certain molecules disclosed in this document were tested against GPA using procedures described in the following example. In the reporting of the results, the “GPA Rating Table” was used (See Table Section). Cabbage seedlings grown in 3-inch pots, with 2-3 small (3-5 cm) true leaves, were used as test substrate. The seedlings were infested with 20-50 GPA (wingless adult and nymph stages) one day prior to chemical application. Four pots with individual seedlings were used for each treatment. Test compounds (2 mg) were dissolved in 2 mL of acetone/MeOH (1:1) solvent, forming stock solutions of 1000 ppm test compound. The stock solutions were diluted 5× with 0.025% Tween 20 in H2O to obtain the solution at 200 ppm test compound. A hand-held aspirator-type sprayer was used for spraying a solution to both sides of […] leaves until runoff. Reference plants (solvent check) were sprayed with the diluent only containing 20% by volume of acetone/MeOH (1:1) solvent. Treated plants were held in a holding room for three days at approximately 25° C. and ambient relative humidity (RH) prior to grading. Evaluation was conducted by counting the number of live aphids per plant under a microscope. Percent Control was measured by using Abbott's correction formula (W. S. Abbott, “A Method of Computing the Effectiveness of an Insecticide” J. Econ. Entomol. 18 (1925), pp. 265-267) as follows. Corrected % Control=100*(X−Y)/X • where • X=No. of live aphids on solvent check plants and • Y=No. of live aphids on treated plants The results are indicated in the table entitled “Table 3: Assay Results” (See Table Section).

[2] = system: BAW (Spodoptera exigua); assay: Bioassays on Beet Armyworm (BAW), 128-well diet tray assay; conditions: Spodoptera exigua, 168 h, read-out: BAW Rating
Method: (§1) Bioassays on Beet Armyworm (“BAW”) and Corn Earworm (“CEW”) and Cabbage Looper (“CL”)
(§2) Certain molecules disclosed in this document were tested against BAW and CEW and CL using procedures described in the following examples. In the reporting of the results, the “BAW & CEW & CL Rating Table” was used (See Table Section).
Bioassays on BAW (Spodoptera exigua)
Bioassays on BAW were conducted using a 128-well diet tray assay. one to five second instar BAW larvae were placed in each well (3 mL) of the diet tray that had been previously filled with 1 mL of artificial diet to which 50 μg/cm^2 of the test compound (dissolved in 50 μL of 90:10 acetone-water mixture) had been applied (to each of eight wells) and then allowed to dry. Trays were covered with a clear self-adhesive cover, and held at 25° C., 14:10 light-dark for five to seven days. Percent mortality was recorded for the larvae in each well; activity in the eight wells was then averaged. The results are indicated in the table entitled “Table 3: Assay Results” (See Table Section).

[3] = system: CEW (Helicoverpa zea); assay: Bioassays on Corn Earworm (CEW), 128-well diet tray assay; conditions: Helicoverpa zea, 168 h; percent mortality, second instar larvae, 50 μg/cm^2 on artificial diet, five to seven days, 25° C.; read-out: CEW Rating
Method: as §1, §2
Bioassays on CEW (Helicoverpa zea)
Bioassays on CEW were conducted using a 128-well diet tray assay. one to five second instar CEW larvae were placed in each well (3 mL) of the diet tray that had been previously filled with 1 mL of artificial diet to which 50 μg/cm^2 of the test compound (dissolved in 50 μL of 90:10 acetone-water mixture) had been applied (to each of eight wells) and then allowed to dry. Trays were covered with a clear self-adhesive cover, and held at 25° C., 14:10 light-dark for five to seven days. Percent mortality was recorded for the larvae in each well; activity in the eight wells was then averaged. The results are indicated in the table entitled “Table 3: Assay Results” (See Table Section).

CC(C)(C)C(=O)NCc1ccc(/C=C/C(c2cc(Cl)c(Cl)c(Cl)c2)C(F)(F)F)cc1Cl (stereo not drawn) [CC12]
pest or weed control at 200 ppm [1]: 0 to 80%

O=C(NCc1ccc(/C=C/C(c2cc(Cl)c(Cl)c(Cl)c2)C(F)(F)F)cc1Br)C1CC1 (stereo not drawn) [CC26]
pest or weed control at 50 µg/cm2 [2]: 50 to 100% | pest or weed control at 200 ppm [1]: 0 to 80%

CC(C)(C)OC(=O)NCc1ccc(/C=C/C(c2cc(Cl)c(Cl)c(Cl)c2)C(F)(F)F)cc1Cl (stereo not drawn) [CC39]
pest or weed control at 200 ppm [1]: 0 to 80%

COC(=O)C(=O)NCc1ccc(/C=C/C(c2cc(Cl)c(Cl)c(Cl)c2)C(F)(F)F)cc1Cl (stereo not drawn) [CC41, (E)-Methyl 2-((2-chloro-4-(4,4,4-trifluoro-3-(3,4,5-trichlorophenyl)but-1-en-1-yl)benzyl)amino)-2-oxoacetate]
pest or weed control at 200 ppm [1]: 0 to 80%

O=C(CC(F)(F)F)NOc1ccc(/C=C/C(c2cc(Cl)c(Cl)c(Cl)c2)C(F)(F)F)cc1 (stereo not drawn) [CC53]
pest or weed control at 200 ppm [1]: 0 to 80%

Cc1cc(/C=C/C(c2cc(Cl)c(Cl)c(Cl)c2)C(F)(F)F)cc(C#N)c1-n1cncn1 (stereo not drawn) [DC45]
pest or weed control at 50 µg/cm2 [2]: 50 to 100% | pest or weed control at 50 µg/cm2 [3]: 50 to 100%

N#Cc1cc(/C=C\C(c2cc(Cl)c(F)c(Cl)c2)C(F)(F)F)ccc1-n1cncn1 (stereo not drawn) [DC46]
pest or weed control at 50 µg/cm2 [2]: 50 to 100% | pest or weed control at 50 µg/cm2 [3]: 50 to 100%

FC(F)(F)C(/C=C/c1ccc(-n2cncn2)c(Br)c1)c1cc(Cl)cc(Cl)c1 (stereo not drawn) [DC47]
pest or weed control at 50 µg/cm2 [2]: 50 to 100% | pest or weed control at 50 µg/cm2 [3]: 50 to 100%

Fc1cc(/C=C/C(c2cc(Cl)cc(Cl)c2)C(F)(F)F)ccc1-n1cncn1 (stereo not drawn) [DC48]
pest or weed control at 50 µg/cm2 [2]: 50 to 100% | pest or weed control at 50 µg/cm2 [3]: 50 to 100%

FC(F)(F)C(/C=C/c1ccc(-n2cncn2)c(Cl)c1)c1cc(Cl)c(Cl)c(Cl)c1 (stereo not drawn) [DC49]
pest or weed control at 50 µg/cm2 [2]: 50 to 100% | pest or weed control at 50 µg/cm2 [3]: 50 to 100%

FC(F)(F)C(/C=C/c1ccc(-n2cncn2)c(Cl)c1)c1cc(Cl)cc(Cl)c1 (stereo not drawn) [DC50]
pest or weed control at 50 µg/cm2 [2]: 50 to 100% | pest or weed control at 50 µg/cm2 [3]: 50 to 100%

FC(F)(F)c1cc(/C=C/C(c2cc(Cl)cc(Cl)c2)C(F)(F)F)ccc1-n1cncn1 (stereo not drawn) [DC51]
pest or weed control at 50 µg/cm2 [2]: 50 to 100% | pest or weed control at 50 µg/cm2 [3]: 50 to 100%

CNc1cc(/C=C/C(c2cc(Cl)cc(Cl)c2)C(F)(F)F)ccc1-n1cncn1 (stereo not drawn) [DC57, (E)-5-(3-(3,5-Dichlorophenyl)-4,4,4-trifluorobut-1-en-1-yl)-N-methyl-2-(1H-1,2,4-triazol-1-yl)aniline]
pest or weed control at 50 µg/cm2 [2]: 50 to 100% | pest or weed control at 50 µg/cm2 [3]: 50 to 100%

CCOC(=O)c1cc(/C=C/C(c2cc(Cl)cc(Cl)c2)C(F)(F)F)ccc1-n1cncn1 (stereo not drawn) [DC60]
pest or weed control at 50 µg/cm2 [2]: 50 to 100% | pest or weed control at 50 µg/cm2 [3]: 50 to 100%

Cc1cc(/C=C/C(c2cc(Cl)cc(Cl)c2)C(F)(F)F)ccc1-n1cncn1 (stereo not drawn) [DC62]
pest or weed control at 50 µg/cm2 [2]: 50 to 100% | pest or weed control at 50 µg/cm2 [3]: 50 to 100%

Cc1cc(/C=C/C(c2cc(Cl)c(Cl)c(Cl)c2)C(F)(F)F)ccc1-n1cncn1 (stereo not drawn) [DC63]
pest or weed control at 50 µg/cm2 [2]: 50 to 100% | pest or weed control at 50 µg/cm2 [3]: 50 to 100%

FC(F)(F)C(/C=C/c1ccc(-n2cncn2)cc1Cl)c1cc(Cl)c(Cl)c(Cl)c1 (stereo not drawn) [DC66]
pest or weed control at 50 µg/cm2 [2]: 50 to 100% | pest or weed control at 50 µg/cm2 [3]: 50 to 100%

FC(F)(F)C(/C=C/c1ccc(-n2cncn2)cc1Cl)c1cc(Cl)cc(Cl)c1 (stereo not drawn) [DC67]
pest or weed control at 50 µg/cm2 [2]: 50 to 100% | pest or weed control at 50 µg/cm2 [3]: 50 to 100%

C/C(=C\C(c1cc(Cl)cc(Cl)c1)C(F)(F)F)c1ccc(-n2cncn2)cc1 (stereo not drawn) [DC68, (E)-1-(4-(4-(3,5-Dichlorophenyl)-5,5,5-trifluoropent-2-en-2-yl)phenyl)-1H-1,2,4-triazole]
pest or weed control at 50 µg/cm2 [2]: 50 to 100% | pest or weed control at 50 µg/cm2 [3]: 50 to 100%

COC(/C=C/c1ccc(-n2cncn2)cc1)(c1cc(Cl)cc(Cl)c1)C(F)(F)F (stereo not drawn) [DC70, (E)-1-(4-(3-(3,5-Dichlorophenyl)-4,4,4-trifluoro-3-methoxybut-1-en-1-yl)phenyl)-1H-1,2,4-triazole]
pest or weed control at 50 µg/cm2 [2]: 50 to 100% | pest or weed control at 50 µg/cm2 [3]: 50 to 100%

Source: US9210927B2, “Pesticidal compositions and processes related thereto” (Dow AgroSciences LLC, priority 2013, dated 2015)
